# In ChEMBL document CHEMBL1201862, “PubChem BioAssay data set” (2004):
#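 Assay format: 96-well plates, 48-hour exposure. GI50 = concentration required for 50% inhibition of growth.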 Activity calls are given as the source filed them. Rule as the data show it: active = GI50 up to about 1.1 µM and inactive = higher.
# Legend:
# Experiment in all cases: inhibition of tumour cell growth, NCI panel, 48 h
# [1] = system: 786-0
# [2] = system: A498
# [3] = system: A549
# [4] = system: ACHN
# [5] = system: BT-549
# [6] = system: CAKI-1
# [7] = system: CCRF-CEM
# [8] = system: COLO 205
# [9] = system: DU-145
# [10] = system: EKVX
# [11] = system: HCT-116
# [12] = system: HCT-15
# [13] = system: HL-60
# [14] = system: HOP-62
# [15] = system: HOP-92
# [16] = system: HT-29
# [17] = system: Hs-578T
# [18] = system: IGROV-1
# [19] = system: K562
# [20] = system: KM12
# [21] = system: LOX IMVI
# [22] = system: M14
# [23] = system: MCF7
# [24] = system: MDA-MB-231
# [25] = system: MDA-MB-435
# [26] = system: MDA-N
# [27] = system: MOLT-4
# [28] = system: Malme-3M
# [29] = system: NCI-H226
# [30] = system: NCI-H23
# [31] = system: NCI-H460
# [32] = system: NCI-H522
# [33] = system: NCI/ADR-RES
# [34] = system: OVCAR-3
# [35] = system: OVCAR-4
# [36] = system: OVCAR-5
# [37] = system: OVCAR-8
# [38] = system: PC-3
# [39] = system: RPMI-8226
# [40] = system: RXF 393
# [41] = system: SF-268
# [42] = system: SF-295
# [43] = system: SF-539
# [44] = system: SK-MEL-28
# [45] = system: SK-MEL-2
# [46] = system: SK-MEL-5
# [47] = system: SK-OV-3
# [48] = system: SN12C
# [49] = system: SNB-19
# [50] = system: SNB-75
# [51] = system: SW-620
# [52] = system: T47D
# [53] = system: TK-10
# [54] = system: U-251
# [55] = system: UACC-257
# [56] = system: UACC-62
# [57] = system: UO-31
smiles,measurement,setting,value
Clc1ccc(/C=C/c2nc(Cl)c(-c3ccc(Cl)cc3)c(Cl)n2)cc1,GI50,[1],43.8 µM (inactive)
same,GI50,[2],50.6 µM (inactive)
same,GI50,[3],37.9 µM (inactive)
same,GI50,[4],35.2 µM (inactive)
same,GI50,[5],> 100 µM (inactive)
same,GI50,[6],74.8 µM (inactive)
same,GI50,[7],20.4 µM (inactive)
same,GI50,[8],> 100 µM (inactive)
same,GI50,[9],76.4 µM (inactive)
same,GI50,[10],69.8 µM (inactive)
same,GI50,[11],46.8 µM (inactive)
same,GI50,[12],> 100 µM
same,GI50,[13],14.3 µM (inactive)
same,GI50,[14],> 100 µM (inactive)
same,GI50,[15],> 100 µM (inactive)
same,GI50,[16],48.9 µM (inactive)
same,GI50,[17],> 100 µM (inactive)
same,GI50,[18],60 µM (inactive)
same,GI50,[19],32.1 µM (inactive)
same,GI50,[20],> 100 µM (inactive)
same,GI50,[21],86.9 µM (inactive)
same,GI50,[22],29.7 µM (inactive)
same,GI50,[23],45.5 µM (inactive)
same,GI50,[24],67 µM (inactive)
same,GI50,[25],53.2 µM (inactive)
same,GI50,[26],59.4 µM (inactive)
same,GI50,[27],32.5 µM (inactive)
same,GI50,[28],> 100 µM (inactive)
same,GI50,[29],80.9 µM (inactive)
same,GI50,[30],27.1 µM (inactive)
same,GI50,[31],61 µM (inactive)
same,GI50,[32],31.5 µM (inactive)
same,GI50,[33],68.2 µM (inactive)
same,GI50,[34],> 100 µM (inactive)
same,GI50,[35],71.6 µM (inactive)
same,GI50,[36],> 100 µM (inactive)
same,GI50,[37],> 100 µM (inactive)
same,GI50,[38],42.6 µM (inactive)
same,GI50,[39],23.8 µM (inactive)
same,GI50,[40],53.8 µM (inactive)
same,GI50,[41],> 100 µM (inactive)
same,GI50,[42],52.1 µM (inactive)
same,GI50,[43],57.7 µM (inactive)
same,GI50,[44],> 100 µM (inactive)
same,GI50,[45],25.6 µM (inactive)
same,GI50,[46],38.8 µM (inactive)
same,GI50,[47],> 100 µM (inactive)
same,GI50,[48],89.9 µM (inactive)
same,GI50,[49],> 100 µM (inactive)
same,GI50,[50],19.3 µM (inactive)
same,GI50,[51],68.7 µM (inactive)
same,GI50,[52],38.3 µM (inactive)
same,GI50,[53],62.5 µM (inactive)
same,GI50,[54],40.6 µM (inactive)
same,GI50,[55],39.3 µM (inactive)
same,GI50,[56],> 100 µM (inactive)
same,GI50,[57],13.6 µM (inactive)
